Data as given in patent publication US10538528B2, “5H-pyrrolo[2,3-D]pyrimidin-6(7H)-one derivative” (Taiho Pharmaceutical Co., Ltd., priority 2016, dated 2020).

Experiments:
Format in all cases: biochemical
[1] = biological target: human Akt1 (Homo sapiens (Human), UniProt P31749); experiment: Inhibitory effects on Akt1 kinase activity (TR-FRET, biotinylated Crosstide); conditions: Akt1, ATP 150 μM, pre-incubation 120 minutes at 25° C.; read-out: AKT inhibitory activity IC50
Description: Akt1 was prepared and assays of inhibitory activity of the compound according to the present invention against Akt1 kinase activity in vitro were conducted according to the method described in Biochem. J., vol. 385, pp. 399-408, 2005 and Cancer Res., vol. 68, pp. 2366-2374, 2008. In the preparation of Akt1 protein, human Akt1 tagged with the middle T antigen was expressed in an insect cell Sf9, Akt1 was prepared through affinity purification and activation by PDK1, and the resultant was stored at −80° C. until the inhibition assays of the compounds. In the inhibition assay of the compounds, Akt1 and the compound according to the present invention were subjected to pre-incubation at 25° C. for 120 minutes in a reaction buffer (15 mM Tris-HCl, pH 7.5, 0.01% Tween-20, 2 mM DTT). Subsequently, biotinylated Crosstide (biotin-[…], Millipore), MgCl2, and ATP were added as substrates at the final concentration of 500 nM, 10 mM, and 150 μM, respectively, and the reaction was allowed to proceed at 25° C. for 60 minutes. EDTA was added to the final concentration of 40 mM to terminate the reaction, a detection liquid containing the Eu-anti-phospho-Crosstide antibody (PerkinElmer) and SureLight APC-SA (PerkinElmer) at the final concentration of 0.5 nM and 62.5 nM, respectively was added, and the reaction was allowed to proceed at room temperature for 2 hours. In the end, the fluorescence levels irradiated with an excitation light of 337 nm were assayed at two different wavelength levels (i.e., 620 nm and 665 nm) using PI-HERAstar FS (BMG LABTECH) or PHERAstar (BMG LABTECH). The level of the phosphorylation reaction was determined on the basis of the ratio of fluorescence levels at two wavelength levels, and the concentration of the compound at which phosphorylation could be inhibited by 50% was defined as the IC50 level (nM) and shown in Table 2.
As reference compounds, conventional Comparative Example A (WO 2010/056563 (Example 31)) and Comparative Example B having inhibitory activity against Akt were used.

[2] = biological target: Rsk1 (Homo sapiens (Human), UniProt Q15418); experiment: Inhibitory effects on Rsk1 kinase activity (QSS Assist FP assay kit); conditions: Rsk1, ATP 30 μM; read-out: Rsk inhibitory activity IC50
Rsk1, sequence (Q15418 whole entry): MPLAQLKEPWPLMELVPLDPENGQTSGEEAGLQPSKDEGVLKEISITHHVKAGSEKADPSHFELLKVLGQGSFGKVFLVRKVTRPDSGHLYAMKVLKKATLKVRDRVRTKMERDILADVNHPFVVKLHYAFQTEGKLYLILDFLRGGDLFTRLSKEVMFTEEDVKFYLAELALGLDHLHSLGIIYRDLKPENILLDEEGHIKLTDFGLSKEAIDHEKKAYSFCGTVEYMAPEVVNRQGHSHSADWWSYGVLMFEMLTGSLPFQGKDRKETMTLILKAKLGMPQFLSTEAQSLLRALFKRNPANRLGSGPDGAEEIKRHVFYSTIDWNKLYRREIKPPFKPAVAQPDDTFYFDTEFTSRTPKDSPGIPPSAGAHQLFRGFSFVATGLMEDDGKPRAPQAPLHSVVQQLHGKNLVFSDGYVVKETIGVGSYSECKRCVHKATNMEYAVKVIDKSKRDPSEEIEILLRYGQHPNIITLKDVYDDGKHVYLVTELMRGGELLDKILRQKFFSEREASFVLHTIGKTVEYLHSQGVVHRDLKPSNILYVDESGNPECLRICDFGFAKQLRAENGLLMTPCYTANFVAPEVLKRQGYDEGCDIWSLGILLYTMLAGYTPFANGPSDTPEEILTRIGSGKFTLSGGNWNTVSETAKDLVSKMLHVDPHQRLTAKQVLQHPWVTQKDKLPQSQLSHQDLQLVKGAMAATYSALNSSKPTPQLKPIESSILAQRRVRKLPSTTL
Description: Inhibitory activity of the compound according to the present invention on Rsk1 kinase activity in vitro was assayed using the QSS Assist™ FP assay kit (Carna Biosciences, Inc.).
In the inhibition assay of inhibitory activity of the compound, the test compound was diluted by serial dilution with dimethyl sulfoxide (DMSO). Subsequently, an Rsk1 protein, a substrate peptide (final concentration: 100 nM), magnesium chloride (final concentration: 10 mM), ATP (final concentration: 30 μM), and the solution of the test compound in DMSO (DMSO final concentration: 5%) were added to the kinase reaction buffer (20 mM HEPES (pH 7.4), 2 mM dithiothreitol, 0.01% Tween-20), and the mixture was incubated at 25° C. for 40 minutes to perform the kinase reaction. The IMAP Progressive Binding Reagent diluted to 400-fold with the IMAP Progressive Binding Buffer A (Molecular Devices, LLC) was added to terminate the kinase reaction.

[3] = biological target: S6K1 (Homo sapiens (Human), UniProt P23443); experiment: Inhibitory effects on S6K1 kinase activity (QSS Assist FP assay kit); conditions: S6K1, ATP 25 μM; read-out: S6K inhibitory activity IC50
S6K1, sequence (P23443 whole entry): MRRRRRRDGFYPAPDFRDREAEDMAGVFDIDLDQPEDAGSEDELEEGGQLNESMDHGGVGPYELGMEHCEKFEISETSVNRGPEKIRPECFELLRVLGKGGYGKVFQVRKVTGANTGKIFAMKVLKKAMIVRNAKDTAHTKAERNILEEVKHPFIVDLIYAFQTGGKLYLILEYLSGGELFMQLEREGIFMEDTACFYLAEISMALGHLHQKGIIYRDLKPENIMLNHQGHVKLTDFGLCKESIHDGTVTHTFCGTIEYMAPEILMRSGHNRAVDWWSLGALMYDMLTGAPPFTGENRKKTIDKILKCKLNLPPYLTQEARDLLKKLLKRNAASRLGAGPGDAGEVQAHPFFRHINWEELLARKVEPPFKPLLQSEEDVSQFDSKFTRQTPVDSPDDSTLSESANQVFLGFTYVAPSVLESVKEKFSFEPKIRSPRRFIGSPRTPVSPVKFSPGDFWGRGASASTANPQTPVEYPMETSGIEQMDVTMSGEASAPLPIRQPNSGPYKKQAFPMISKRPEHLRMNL
Description: Inhibitory activity of the compound according to the present invention on S6K1 kinase activity in vitro was assayed using the QSS Assist™ FP assay kit (Carna Biosciences, Inc.).
In the inhibition assay for inhibitory activity of the compound, the test compound was diluted by serial dilution with dimethyl sulfoxide (DMSO). Subsequently, an S6K protein, a substrate peptide (final concentration: 100 nM), magnesium chloride (final concentration: 5 mM), ATP (final concentration: 25 μM), and the solution of the test compound in DMSO (final DMSO concentration: 5%) were added to the kinase reaction buffer (20 mM HEPES (pH 7.4), 2 mM dithiothreitol, 0.01% Tween-20), and the mixture was incubated at 25° C. for 30 minutes to perform the kinase reaction. The IMAP Progressive Binding Reagent diluted to 400-fold with the IMAP Progressive Binding Buffer A (Molecular Devices, LLC) was added thereto to terminate the kinase reaction. The reaction product was allowed to stand at room temperature in the dark for 120 minutes and assayed with the use of PHERAstar (BMG LABTECH; excitation wavelength: 485 nm; detection wavelength: 520 nm). The level of phosphorylation reaction was determined based on the degree of fluorescence polarization, and the concentration of the compound at which phosphorylation could be inhibited by 50% was defined as the IC50 level (nM) and shown in Table 4.

human Akt1, sequence (P31749 whole entry): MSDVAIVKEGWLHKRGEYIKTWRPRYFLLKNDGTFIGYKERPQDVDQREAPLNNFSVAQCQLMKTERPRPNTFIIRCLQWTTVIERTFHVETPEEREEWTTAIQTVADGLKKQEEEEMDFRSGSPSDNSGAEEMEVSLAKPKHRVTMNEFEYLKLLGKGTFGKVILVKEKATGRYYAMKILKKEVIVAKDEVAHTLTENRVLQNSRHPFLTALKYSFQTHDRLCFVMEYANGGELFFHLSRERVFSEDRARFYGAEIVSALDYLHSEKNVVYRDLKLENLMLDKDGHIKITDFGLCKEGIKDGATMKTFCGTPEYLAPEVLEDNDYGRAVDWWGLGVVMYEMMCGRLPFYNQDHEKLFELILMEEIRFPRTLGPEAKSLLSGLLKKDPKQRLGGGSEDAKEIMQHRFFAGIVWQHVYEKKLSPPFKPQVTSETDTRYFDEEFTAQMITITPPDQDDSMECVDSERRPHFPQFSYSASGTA

Compound	IC50 [1]	IC50 [2]	IC50 [3]
CC(C)(C)NCCNc1ccc(-c2nc(C(F)(F)F)no2)nc1C1CCN(c2ncnc3c2C(C)(C)C(=O)N3)CC1 [Compound 43, 4-(4-(3-((2-(Tert-butylamino)ethyl)amino)-6-(3-(trifluoromethyl)-1,2,4-oxadiazol-5-yl)pyridin-2-yl)piperidin-1-yl)-5,5-dimethyl-5H-pyrrolo[2,3-d]pyrimidin-6(7H)-one]	1 nM	0.4 nM	0.4 nM
CC(C)NCCNc1ccc(-c2cc(Cl)nn2C)nc1C1CCN(c2ncnc3c2C(C)(C)C(=O)N3)CC1 [Compound 11, 4-(4-(6-(3-Chloro-1-methyl-1H-pyrazol-5-yl)-3-((2-(isopropylamino)ethyl)amino)pyridin-2-yl)piperidin-1-yl)-5,5-dimethyl-5H-pyrrolo[2,3-d]pyrimidin-6(7H)-one]	5.8 nM	0.7 nM	0.3 nM
CC(C)NCCNc1ccc(-c2nnc(C(F)(F)F)o2)nc1C1CCN(c2ncnc3c2C(C)(C)C(=O)N3)CC1 [Compound 33, 4-(4-(3-((2-(Isopropylamino)ethyl)amino)-6-(5-(trifluoromethyl)-1,3,4-oxadiazol-2-yl)pyridin-2-yl)piperidin-1-yl)-5,5-dimethyl-5H-pyrrolo[2,3-d]pyrimidin-6(7H)-one]	2.5 nM	1 nM	0.5 nM
COc1cc(-c2ccc(NCCN3CCCC3)c(C3CCN(c4ncnc5c4C(C)C(=O)N5)CC3)n2)c(F)cn1 (stereo not drawn) [Compound 16, 4-(4-(5′-Fluoro-2′-methoxy-5-((2-(pyrrolidin-1-yl)ethyl)amino)-[2,4′-bipyridin]-6-yl)piperidin-1-yl)-5-methyl-5H-pyrrolo[2,3-d]pyrimidin-6(7H)-one]	1.9 nM	0.8 nM	0.7 nM
CC1C(=O)Nc2ncnc(N3CCC(c4nc(-c5cccnc5F)ccc4NCCN4CCCC4)CC3)c21 (stereo not drawn) [Compound 17, 4-(4-(2′-Fluoro-5-((2-(pyrrolidin-1-yl)ethyl)amino)-[2,3′-bipyridin]-6-yl)piperidin-1-yl)-5-methyl-5H-pyrrolo[2,3-d]pyrimidin-6(7H)-one]	0.6 nM	1.1 nM	0.7 nM
CC1C(=O)Nc2ncnc(N3CCC(c4nc(-c5ccsc5)ccc4NCCN4CCCC4)CC3)c21 (stereo not drawn) [Compound 18, 5-Methyl-4-(4-(3-((2-(pyrrolidin-1-yl)ethyl)amino)-6-(thiophen-3-yl)pyridin-2-yl)piperidin-1-yl)-5H-pyrrolo[2,3-d]pyrimidin-6(7H)-one]	0.5 nM	1.4 nM	0.8 nM
CC(C)(C)NCCNc1ccc(-c2nnc(C3CC3)s2)nc1C1CCN(c2ncnc3c2C(C)(C)C(=O)N3)CC1 [Compound 40, 4-(4-(3-((2-(Tert-butylamino)ethyl)amino)-6-(5-cyclopropyl-1,3,4-thiadiazol-2-yl)pyridin-2-yl)piperidin-1-yl)-5,5-dimethyl-5H-pyrrolo[2,3-d]pyrimidin-6(7H)-one]	3.6 nM	0.6 nM	0.3 nM

The remaining compounds from weak to strong by IC50 [1], led by results:

IC50 [1]	IC50 [2]	IC50 [3]	Compound
7.6 nM	1.8 nM	0.6 nM	CC(C)NCCNc1ccc(-c2nnc(C(F)F)o2)nc1C1CCN(c2ncnc3c2C(C)(C)C(=O)N3)CC1 [Compound 31, 4-(4-(6-(5-(Difluoromethyl)-1,3,4-oxadiazol-2-yl)-3-((2-(isopropylamino)ethyl)amino)pyridin-2-yl)piperidin-1-yl)-5,5-dimethyl-5H-pyrrolo[2,3-d]pyrimidin-6(7H)-one]
4.1 nM	0.6 nM	0.3 nM	CC(C)NCCNc1ccc(-c2nnc(C(F)F)s2)nc1C1CCN(c2ncnc3c2C(C)(C)C(=O)N3)CC1 [Compound 39, 4-(4-(6-(5-(Difluoromethyl)-1,3,4-thiadiazol-2-yl)-3-((2-(isopropylamino)ethyl)amino)pyridin-2-yl)piperidin-1-yl)-5,5-dimethyl-5H-pyrrolo[2,3-d]pyrimidin-6(7H)-one]
3.5 nM	0.7 nM	0.3 nM	CC(C)NCCNc1ccc(-c2cnc(F)c(F)c2)nc1C1CCN(c2ncnc3c2C(C)(C)C(=O)N3)CC1 [Compound 5, 4-(4-(5′,6′-Difluoro-5-((2-(isopropylamino)ethyl)amino)-[2,3′-bipyridin]-6-yl)piperidin-1-yl)-5,5-dimethyl-5H-pyrrolo[2,3-d]pyrimidin-6(7H)-one]
3.3 nM	0.5 nM	0.3 nM	CC(C)(C)NCCNc1ccc(-c2nnc(C(F)F)s2)nc1C1CCN(c2ncnc3c2C(C)(C)C(=O)N3)CC1 [Compound 37, 4-(4-(3-((2-(Tert-butylamino)ethyl)amino)-6-(5-(difluoromethyl)-1,3,4-thiadiazol-2-yl)pyridin-2-yl)piperidin-1-yl)-5,5-dimethyl-5H-pyrrolo[2,3-d]pyrimidin-6(7H)-one]
1 nM	0.9 nM	0.4 nM	CN(CCNc1ccc(-c2nnc(C(F)(F)F)o2)nc1C1CCN(c2ncnc3c2C(C)(C)C(=O)N3)CC1)C(C)(C)C [Compound 34, 4-(4-(3-((2-(Tert-butyl(methyl)amino)ethyl)amino)-6-(5-(trifluoromethyl)-1,3,4-oxadiazol-2-yl)pyridin-2-yl)piperidin-1-yl)-5,5-dimethyl-5H-pyrrolo[2,3-d]pyrimidin-6(7H)-one]
0.7 nM	1.5 nM	0.4 nM	CC1C(=O)Nc2ncnc(N3CCC(c4nc(-c5ccsc5)ccc4NCCN(C)C)CC3)c21 (stereo not drawn) [Compound 23, 4-(4-(3-((2-(Dimethylamino)ethyl)amino)-6-(thiophen-3-yl)pyridin-2-yl)piperidin-1-yl)-5-methyl-5H-pyrrolo[2,3-d]pyrimidin-6(7H)-one]
0.6 nM	0.9 nM	0.6 nM	CC1C(=O)Nc2ncnc(N3CCC(c4nc(-c5cc(C(F)(F)F)nn5C)ccc4NCCN4CCCC4)CC3)c21 (stereo not drawn) [Compound 20, 5-Methyl-4-(4-(6-(1-methyl-3-(trifluoromethyl)-1H-pyrazol-5-yl)-3-((2-(pyrrolidin-1-yl)ethyl)amino)pyridin-2-yl)piperidin-1-yl)-5H-pyrrolo[2,3-d]pyrimidin-6(7H)-one]
0.4 nM	0.9 nM	0.5 nM	CC1C(=O)Nc2ncnc(N3CCC(c4nc(-c5cncc(F)c5)ccc4NCCN4CCCC4)CC3)c21 (stereo not drawn) [Compound 19, 4-(4-(5′-Fluoro-5-((2-(pyrrolidin-1-yl)ethyl)amino)-[2,3′-bipyridin]-6-yl)piperidin-1-yl)-5-methyl-5H-pyrrolo[2,3-d]pyrimidin-6(7H)-one]
